Laboratory results published in article PMC3886901, “Vestigialization of an Allosteric Switch: Genetic and Structural Mechanisms for the Evolution of Constitutive Activity in a Steroid Hormone Receptor” (PLoS Genetics, 2014).

Tested on: T1, AncLophoSR (ancestral lophotrochozoan steroid receptor, ML reconstruction; GenBank KC261633)
T1 construct: resurrected LBD with the hinge domain and C-terminus of CgER, Gal4-DBD fusion
Test: Gal4-DBD fusion dual luciferase reporter assay in transfected CHO-K1 cells
Format: cell-based, synthetic construct

Structure (SMILES): C[C@]12CC[C@@H]3c4ccc(O)cc4CC[C@H]3[C@@H]1CC[C@@H]2O [17β-estradiol]
- EC50: 12 nM
